Laboratory results reported in ChEMBL document CHEMBL1177881, “Synthesis and GABAA receptor activity of A-homo analogues of neuroactive steroids” (Eur J Med Chem, 2010).

Experiments:
[1] = Displacement of [35S]TBPS from GABAA receptor in rat cerebellum after 60 mins; format: tissue-based
Rattus norvegicus = organism: Rattus norvegicus; assay: Displacement of [35S]TBPS from GABAA receptor in rat cerebellum at 10 uM to 1 nM after 60 mins; format: tissue-based

| SMILES | IC50 [1] [nM] | Imax (Rattus norvegicus) [%] |
| --- | --- | --- |
| CC(=O)[C@H]1CC[C@H]2[C@@H]3CC[C@H]4C[C@H](O)CC[C@]4(C)[C@H]3CC[C@]12C [BREXANOLONE] | 80 | 79.6 |
| CC(=O)[C@H]1CC[C@H]2[C@@H]3CC[C@H]4CC[C@@H](O)CC[C@]4(C)[C@H]3CC[C@]12C | 1000 | 46.2 |
| CC(=O)[C@H]1CC[C@H]2[C@@H]3CC=C4CC[C@@H](O)CC[C@]4(C)[C@H]3CC[C@]12C | 100 | 50 |
| CC(=O)[C@H]1CC[C@H]2[C@@H]3CC=C4CC[C@H](O)CC[C@]4(C)[C@H]3CC[C@]12C | 1200 | 75.6 |
| CC(=O)[C@H]1CC[C@H]2[C@@H]3CC=C4C[C@H](O)CCC[C@]4(C)[C@H]3CC[C@]12C | 800 | 50.7 |
